In brackets after ≈: the same amount, converted by molar mass.

Drawing on patent US8207167B2, “Aryl-phenyl-sulfonamide-phenylene compounds and their use” (PIMCO 2664 Limited, priority 2008, dated 2012), this text covers solubility and T1/2 for 1 compound.

A short description of series [1]: Thermodynamic aqueous solubility in fasted state simulated intestinal fluid (FaSSIF). It counts as physicochemical. Particulars: fasted state simulated intestinal fluid (FaSSIF), pH 6.5, thermodynamic from solid, 25° C., 24 hours equilibration, HPLC.
Series [2] is described as follows: Human liver microsomal stability assay. It counts as in vitro ADME. The settings on record: pooled human liver microsomes 0.5 mg/mL, test compound 3 μM, 45 minute incubation, NADPH. How it is done:
Initial screening of candidate compounds was performed using in vitro assays to determine potency, metabolic stability and solubility in biologically relevant fluids. Potency was assessed using a viability assay based on the survival of the J774 macrophage cell line. Macrophages are closely related to osteoclasts and have been used previously as a model system for osteoclast survival (see, e.g., Luckman et al., 1998). Like osteoclasts, J774 macrophages are dependent on continued NFκB activation for survival, thereby providing a valuable screen for compounds with anti-inflammatory activity. Metabolic stability was measured by determining the rate of disappearance of compound in the presence of human liver microsomal preparations, as quantified by LC-MS/MS. Solubility was measured by equilibration of the compound in fasted state simulated intestinal fluid (FaSSIF) and quantified by HPLC.
Metabolic stability of APSAP derivatives was measured by determination of the rate of compound disappearance when incubated in the presence of human liver microsomes. Liver microsomes are prepared from the endoplasmic reticulum of hepatocytes and are the primary source of the most important enzymes (cytochrome P450) involved in drug metabolism. Study of drug stability in the presence of liver microsomes is accepted as a valuable model permitting rapid prediction of in vivo drug stability.
Human liver microsomes were obtained from a commercial source. Test compounds (3 μM) were incubated with pooled liver microsomes (male and female). Samples were incubated for a 45 minute period and removed at 5 time points and test compounds were analysed by LC-MS/MS.
The final incubation volume was 25 μL. A control incubation was included for each compound tested, where 0.1 M phosphate buffer pH 7.4 was added instead of NADPH. The control compounds testosterone and 7-hydroxycoumarin were included in each experiment and all incubations were performed singularly for each compound.
Each compound was incubated for 0, 5, 15, 30, and 45 minutes. The control (minus NADPH) was incubated for 45 minutes only. The reactions were stopped by the addition of 50 μL methanol containing internal standard at the appropriate time points. The incubation plates were centrifuged at 2500 rpm for 20 minutes at 4° C. to precipitate the protein.
Following protein precipitation, the sample supernatants were combined in cassettes of up to 4 compounds and analysed using standard LC-MS/MS conditions.
From a plot of the natural logarithm of the peak area ratio (i.e., the ratio of compound peak area:internal standard peak area) against time, the gradient of the line was determined. Subsequently, half-life and intrinsic clearance were calculated using the equations below: Eliminated rate constant(k)=(−gradient). […] Intrinsic Clearance(CLint)([…])=(V×0.693)/t1/2. wherein V=Incubation volume(μL/mg microsomal protein). Pharmacokinetics Studies
(Liver microsomes are a subcellular fraction often used to study metabolism.)

As a reminder, the solubility is how much of the substance goes into solution per volume. Take `CNC(CO)c1cccc(NS(=O)(=O)c2ccc(-c3ccc(F)cc3F)cc2)c1` (centres unmarked) [ABD789, 2′,4′-Difluoro-N-(3-(2-hydroxy-1-(methylamino)ethyl)phenyl)biphenyl-4-sulfonamide]: the solubility at 24 h in series [1] is 520 µg/mL (≈ 1240 µM). Moreover, the T1/2 result in series [2] is on record as “Stable”.
